Assay results: patent EP0234431A2, “5-Hydroxydihydrofusarubin, a process for its preparation and its use for the preparation of a medicament” (HOECHST JAPAN LIMITED, priority 1986, dated 1987)
Converted amounts (≈) assume the structure as drawn.

Tests used:
[1] = tested on: mouse leukemia L1210 cells; test: Antitumor test, growth inhibition of L1210 cells in suspension; type: cell-based; conditions: growth of mouse leukemia L1210 cells in suspension (1 x 10⁶/mouse)
Description: An antitumor test was carried out for 5-hydroxy dihydrofusarubin. Half value (IC₅₀) inhibiting growth of mouse leukemia L1210 cells in suspension (1 x 10⁶/mouse) was as follows: […]

[2] = Solubility (physicochemical properties)
Description: Physicochemical properties of 5-hydroxydihydrofusarubin (I) produced by the present invention are as follows: • (1) Appearance: Orange plates • (2) Molecular formula: C₁₅H₁₈O₇ • (3) Molecular weight: 310 • (4) Melting point: 192-193°C • (5) Optical rotation: -171.4 (in 0.06% acetone solution) • (6) Ultraviolet and visible absorption spectrum: in 95% ethanol solution: λ max (nm) (logε) 211(4.17), 245(4.08), 284(3.97), 359(3.88) • (7) Infrared absorption spectrum: The infrared absorption spectrum measured in potassium bromide tablet is shown in Fig. 1. • (8) ¹H-NMR: ¹H-NMR measured in deuteriumchloroform is shown in Fig. 2. Chemical shifts were assigned as shown below. [formula] • (9) ¹³C-NMR: ¹³C-NMR measured in deuteriumchloroform is shown in Fig. 3. Chemical shifts were assigned as shown below. [formula] • (10) Solubility: Soluble in chloroform, methylene chloride, ethyl acetate, acetone, ethanol or methanol. […] Solubility in water: Insoluble under acidic or neutral condition, and soluble under alkaline condition.

Candida albicans C-a-30 = test: Antimicrobial test, agar plate-dilution method; type: cell-based; conditions: CA30
Description: (§1) Minimum inhibitory concentrations (MIC) of 5-hydroxydihydrofusarubin (I) against bacteria and fungi were determined by the agar plate-dilution method.

[3] = tested on: Streptococcus pneumoniae DP-1; test: Antimicrobial test, agar plate-dilution method; type: cell-based; conditions: DP1
Description: as §1

[4] = tested on: Bacillus subtilis ATCC 6633; test: Antimicrobial test, agar plate-dilution method; type: cell-based; conditions: ATCC6633
Description: as §1

[5] = tested on: Saccharomyces cereviciae ATCC 9763; test: Antimicrobial test, agar plate-dilution method; type: cell-based; conditions: ATCC9763
Description: as §1

[6] = tested on: Staphylococcus aureus FDA209PJC1; test: Antimicrobial test, agar plate-dilution method; type: cell-based
Description: as §1

In the case of `COc1cc(O)c2c(c1O)C(O)C1CC(C)(O)OCC1C2=O` (stereo not shown) [5-Hydroxydihydrofusarubin], the IC50 [1] is reported as 9.4 ± 0.9 µg/mL (≈ 30.3 µM), the Solubility ([2]; in chloroform, methylene chloride, ethyl acetate, acetone, ethanol or methanol) is reported as “Soluble” and the Solubility ([2]; in hexane or petroleum ether) is reported as “Sparingly soluble”. The Solubility in water ([2]; under acidic or neutral condition) was “Insoluble”, the Solubility in water ([2]; under alkaline condition) was “soluble” and the MIC (Candida albicans C-a-30) was 100 µg/mL (≈ 322 µM). The MIC [3] was 50 µg/mL (≈ 161 µM), the MIC [4] was 100 µg/mL (≈ 322 µM) and the MIC [5] was 50 µg/mL (≈ 161 µM). It also gave an MIC [6] of 100 µg/mL (≈ 322 µM).
